Measured values: US20240398784A1, “C-LINKED ISOQUINOLINE AMIDES AS LRRK2 INHIBITORS, PHARMACEUTICAL COMPOSITIONS, AND USES THEREOF” (Merck Sharp & Dohme LLC, priority 2021, published 2024)

Target: LRRK2 G2019S (Homo sapiens, UniProt Q5S007, G2019S)
Assay: LRRK2 G2019S Km ATP LanthaScreen assay
Assay type: biochemical
Conditions: read-out: LRRK2 pIC50 (converted)

LRRK2 G2019S, sequence (Q5S007 whole entry G2019S): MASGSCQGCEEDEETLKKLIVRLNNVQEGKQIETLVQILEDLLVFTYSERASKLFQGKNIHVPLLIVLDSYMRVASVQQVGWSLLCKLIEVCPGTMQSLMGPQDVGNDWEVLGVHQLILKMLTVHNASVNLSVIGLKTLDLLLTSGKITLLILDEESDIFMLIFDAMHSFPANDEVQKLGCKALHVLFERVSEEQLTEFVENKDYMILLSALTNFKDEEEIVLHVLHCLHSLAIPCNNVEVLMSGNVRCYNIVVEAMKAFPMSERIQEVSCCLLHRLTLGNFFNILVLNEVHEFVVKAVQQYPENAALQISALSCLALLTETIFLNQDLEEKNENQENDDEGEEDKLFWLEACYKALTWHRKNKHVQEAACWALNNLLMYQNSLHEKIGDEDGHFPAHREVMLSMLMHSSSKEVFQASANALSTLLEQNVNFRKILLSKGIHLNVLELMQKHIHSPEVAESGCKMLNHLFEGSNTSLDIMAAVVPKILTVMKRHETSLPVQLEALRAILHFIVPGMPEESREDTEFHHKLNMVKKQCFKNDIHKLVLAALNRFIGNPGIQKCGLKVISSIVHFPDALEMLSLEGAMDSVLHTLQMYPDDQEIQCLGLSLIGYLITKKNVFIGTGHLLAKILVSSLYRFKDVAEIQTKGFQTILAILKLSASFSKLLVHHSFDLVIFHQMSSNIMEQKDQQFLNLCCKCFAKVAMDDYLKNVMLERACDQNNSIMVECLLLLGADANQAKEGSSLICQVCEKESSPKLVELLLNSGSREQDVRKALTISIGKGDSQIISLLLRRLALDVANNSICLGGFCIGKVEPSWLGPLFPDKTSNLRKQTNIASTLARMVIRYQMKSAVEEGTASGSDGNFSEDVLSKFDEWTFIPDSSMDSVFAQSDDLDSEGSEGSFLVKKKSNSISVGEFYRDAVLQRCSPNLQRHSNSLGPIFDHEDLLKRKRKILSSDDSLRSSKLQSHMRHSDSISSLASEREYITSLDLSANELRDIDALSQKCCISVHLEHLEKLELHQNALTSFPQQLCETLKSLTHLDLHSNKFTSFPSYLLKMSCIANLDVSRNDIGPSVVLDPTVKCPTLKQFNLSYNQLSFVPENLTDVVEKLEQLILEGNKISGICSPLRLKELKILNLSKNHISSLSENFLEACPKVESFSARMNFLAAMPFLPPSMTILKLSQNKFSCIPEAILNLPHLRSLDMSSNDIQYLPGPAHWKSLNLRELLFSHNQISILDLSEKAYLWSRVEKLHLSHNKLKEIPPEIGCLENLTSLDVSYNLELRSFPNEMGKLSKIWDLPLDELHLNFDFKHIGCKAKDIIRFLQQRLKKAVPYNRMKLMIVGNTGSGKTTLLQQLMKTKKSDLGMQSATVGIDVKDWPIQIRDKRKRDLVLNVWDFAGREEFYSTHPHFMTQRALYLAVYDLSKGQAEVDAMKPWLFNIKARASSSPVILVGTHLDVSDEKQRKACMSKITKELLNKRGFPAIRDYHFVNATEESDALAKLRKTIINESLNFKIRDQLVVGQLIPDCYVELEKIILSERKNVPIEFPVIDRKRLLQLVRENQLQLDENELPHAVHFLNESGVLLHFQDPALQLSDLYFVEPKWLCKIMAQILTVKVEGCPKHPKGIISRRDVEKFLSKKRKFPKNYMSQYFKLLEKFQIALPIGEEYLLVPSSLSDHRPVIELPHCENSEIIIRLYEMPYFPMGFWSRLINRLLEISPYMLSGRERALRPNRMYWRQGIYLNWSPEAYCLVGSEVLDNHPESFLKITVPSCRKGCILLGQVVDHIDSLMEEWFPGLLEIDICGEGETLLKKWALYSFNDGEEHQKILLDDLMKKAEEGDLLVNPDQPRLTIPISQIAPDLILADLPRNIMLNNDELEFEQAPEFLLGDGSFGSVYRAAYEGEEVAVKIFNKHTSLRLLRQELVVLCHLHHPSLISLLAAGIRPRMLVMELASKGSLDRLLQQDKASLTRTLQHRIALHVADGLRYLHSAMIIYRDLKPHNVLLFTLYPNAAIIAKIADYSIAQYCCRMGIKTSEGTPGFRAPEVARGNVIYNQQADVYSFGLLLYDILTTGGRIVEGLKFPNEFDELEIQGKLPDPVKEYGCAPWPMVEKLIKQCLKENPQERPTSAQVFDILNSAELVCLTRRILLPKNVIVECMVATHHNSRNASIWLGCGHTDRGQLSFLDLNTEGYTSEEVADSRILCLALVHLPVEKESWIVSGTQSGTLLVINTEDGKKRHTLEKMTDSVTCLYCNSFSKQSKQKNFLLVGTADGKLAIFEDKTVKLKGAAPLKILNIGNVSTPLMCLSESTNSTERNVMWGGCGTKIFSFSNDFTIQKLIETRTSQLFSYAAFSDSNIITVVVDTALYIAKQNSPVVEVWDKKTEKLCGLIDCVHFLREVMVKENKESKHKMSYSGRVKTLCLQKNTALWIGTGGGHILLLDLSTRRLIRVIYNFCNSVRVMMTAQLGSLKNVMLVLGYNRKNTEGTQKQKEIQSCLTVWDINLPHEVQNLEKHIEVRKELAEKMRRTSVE

IC50 | Structure (SMILES)
5.89 nM | O=C(Nc1cc2cc(C3CCN(C4COC4)CC3F)c(Cl)cc2cn1)C1CC1 (single isomer, unassigned) [Ex-14.1, N-(7-chloro-6-((3R,4R,3S,4R,3R,4S or 3S,4S)-3-fluoro-1-(oxetan-3-yl)piperidin-4-yl)isoquinolin-3-yl)cyclopropanecarboxamide]
19.1 nM | N#CC1(c2ccc3cnc(NC(=O)C4CC4)cc3c2)CC1 [Ex-17.1]
5.13 nM | CC1(N2CCC(c3cc4cc(NC(=O)C5CCC(C(F)(F)F)OC5)ncc4cc3Cl)CC2)COCC1O (centres unmarked) [Ex-2.62]
1.91 nM | Cn1cc(C2CC2C(=O)Nc2cc3cc(C4CCC(N5CC(F)C5)CC4)c(Cl)cc3cn2)cn1 (single isomer, unassigned) [Ex-5.7, N-(7-cchloro-6-(4-(3-fluoroazetidin-1-yl)cyclohexyl)isoquinolin-3-yl)-2-(1-methyl-1H-pyrazol-4-yl)cyclopropane-1-carboxamide]
0.631 nM | COC1CC(C(=O)Nc2cc3cc(C4(C#N)CC45CC5)ccc3cn2)C1 (single isomer, unassigned) [Ex-1.3, (1R,3R or 1S,3S)-N-(6-((R or S)-1-cyanospiro[2.2]pentan-1-yl)isoquinolin-3-yl)-3-methoxycyclobutane-1-carboxamide]
